“And” between values parts separate entries of the source, which are not always exact repeats. Equal values may be shown once. Read-outs that look alike come from different tables or passages of the source.
Columns and labels:
hPPARγ LBD [1] = target: T1, hPPARγ LBD (Homo sapiens, UniProt P37231); experiment: TR-FRET competitive binding assay (LanthaScreen), displacement of a fluorescent pan PPAR agonist tracer; conditions: GST-tagged PPARγ-LBD, 10 concentrations 3 nM to 500 μM, triplicate
T1 sequence (P37231 238-503 limits assumed): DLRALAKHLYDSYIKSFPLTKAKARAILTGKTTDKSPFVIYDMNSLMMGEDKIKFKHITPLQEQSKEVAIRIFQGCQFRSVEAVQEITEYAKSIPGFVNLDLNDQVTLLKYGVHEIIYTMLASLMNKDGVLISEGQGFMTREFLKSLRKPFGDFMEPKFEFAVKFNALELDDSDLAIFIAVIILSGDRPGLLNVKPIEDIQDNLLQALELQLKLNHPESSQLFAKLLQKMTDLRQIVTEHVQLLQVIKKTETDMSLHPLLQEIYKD
Description: IC50 values for respective compounds were determined by competitive binding using time-resolved fluorescence resonance energy transfer (LanthaScreen, Invitrogen) on a Victor2 microplate reader (PerkinElmer). Briefly, a terbium labeled anti-GST antibody was used to label purified GST-tagged PPARγ-LBD (ligand binding domain). Energy transfer from terbium to the tracer, a fluorescent pan PPAR agonist, enabled read-out of each test compounds’s ability to displace the tracer. RFU values from dose-response curves (triplicate sampling) for test compounds as well as positive controls (rosiglitazone) were then analyzed using GraphPad Prism [33]. An unrestrained sigmoidal (one-binding site) dose-response curve was fitted to each data set by linear regression and allowing for determination of IC50 values.

hPPARγ LBD [2] = target: T1, hPPARγ LBD; experiment: Nuclear receptor-LBD transactivation (Gal4-LBD luciferase reporter) in mouse embryo fibroblasts; assay type: cell-based; set-up: expressed in transfected cells; host or cells: mouse embryo fibroblasts (MEFs); conditions: for transactivation selectivity towards all three PPAR subtypes: compared with PPARα and PPARδ transactivation; for induction of transcriptional activation (in words): cell based transactivation assay
Source text: Mouse embryo fibroblasts (MEFs) were propagated in Dulbeccos Modified Eagle’s Media (DMEM) supplemented with 10% FCS and antibiotics.
Cells (Hepa 1–6 were used for PPARα whereas MEFs were used for PPARγ, PPARδ and RXRα transfections) were transfected in solution by Metafectene (Biontex) lipofection, essentially according to the manufacturer’s instructions and seeded in media (MEM or DMEM supplemented with 10% fetal calf serum and antibiotics in 96-well dishes at 24000 cells/cm^2. The transfection plasmid mix included the Gal4-responsive luciferase reporter, the expression vector for the fusion between the Gal4 DNA-binding domain and the nuclear receptor ligand binding domains, and a CMV-Renilla luciferase normalization vector (pRL-CMV, Promega). Six hours after addition of transfection mix to the cells, the media was changed to media (MEM or DMEM) supplemented with vehicle (0.1% DMSO), positive control (1 μM Rosiglitazone, 30 nM GW7647, 1 μM L165041 or 0.2 μM LG1069 for PPARγ, PPARα, PPARδ and RXRα, respectively), or compound. Approx. 18 hours later, cells were harvested and lysates analyzed for Photinus and Renilla luciferase activity by luminometry. All data points were performed in at least triplicate and each sample measured in duplicate. Luminometer raw data was analyzed in Microsoft Excel spreadsheets and presented as column graphs depicting average values of triplicates and including standard deviations.

[3] = system: adipocyte differentiation; set-up: method as in PMID 23432662; conditions: earlier study; cited from earlier work
PPARγ = system: PPARγ; set-up: method as in PMID 23432662; conditions: earlier study; read-out: inhibitor activity IC50; cited from earlier work
[4] = hPPARγ LBD ligand displacement IC50, TR-FRET
[5] = read-out: hPPARγ LBD ligand displacement IC50, TR-FRET

N#CC1=C(N)Oc2[nH]nc(-c3ccccc3)c2C1c1ccccc1 (centres unmarked) [10h, 6-Amino-3,4-diphenyl-1,4-dihydropyrano[2,3-c]pyrazole-5-carbonitrile]
IC50 (hPPARγ LBD [1]; [4]): 173 µM and > 100 µM

Cc1ccc(C)c(C2C(C#N)=C(N)Oc3c2c(C)nn3-c2ccc(Cl)cc2)c1 (centres unmarked) [10ae, 6-Amino-1-(4-chlorophenyl)-4-(2,5-dimethylphenyl)-3-methyl-1,4-dihydropyrano[2,3-c]pyrazole-5-carbonitrile]
IC50 (hPPARγ LBD [1]; [4]): 0.52 µM and ≤ 1 µM | transactivation selectivity towards all three PPAR subtypes (hPPARγ LBD [2]): selective against PPARγ

COc1ccc(C2C(C#N)=C(N)Oc3[nH]nc(C)c32)c(C)c1C (centres unmarked) [10y, 6-Amino-4-(4-methoxy-2,3-dimethylphenyl)-3-methyl-1,4-dihydropyrano[2,3-c]pyrazole-5-carbonitrile]
IC50 (hPPARγ LBD [1]; [4]): 87 µM

Cc1ccccc1C1C(C#N)=C(N)Oc2[nH]nc(Cc3ccccc3)c21 (centres unmarked) [10b, 6-Amino-3-benzyl-5(o-tolyl)-1,4-dihydropyrano[2,3-c]pyrazole-5-carbonitrile]
IC50 (hPPARγ LBD [1]; [4]): 15.7 µM | induction of transcriptional activation (in words) (hPPARγ LBD [2]): did not induce transcriptional activation

Cc1nn(-c2ccccc2)c2c1C(c1ccccc1)C(C#N)=C(N)O2 (centres unmarked) [10ad, 6-Amino-3-methyl-1,4-diphenyl-1,4-dihydropyrano[2,3-c]pyrazole-5-carbonitrile]
IC50 (hPPARγ LBD [1]; [4]): 215 µM and > 100 µM

CCCc1n[nH]c2c1C(c1ccc(C)cc1C)C(C#N)=C(N)O2 (centres unmarked) [10m, 6-Amino-4-(2,4-dimethylphenyl)-3-propyl-1,4-dihydropyrano[2,3-c]pyrazole-5-carbonitrile]
IC50 (hPPARγ LBD [1]; [4]): 14 µM

CCCc1n[nH]c2c1C(c1cc(C)ccc1C)C(C#N)=C(N)O2 (centres unmarked) [10p, 6-Amino-4-(2,5-dimethylphenyl)-3-propyl-1,4-dihydropyrano[2,3-c]pyrazole-5-carbonitrile]
IC50 (hPPARγ LBD [1]; [4]): 91 µM

Cc1ccc(C2C(C#N)=C(N)Oc3[nH]nc(C)c32)c(C)c1 (centres unmarked) [10aa, 6-Amino-4-(2,4-dimethylphenyl)-3-methyl-1,4-dihydropyrano[2,3-c]pyrazole-5-carbonitrile]
IC50 (hPPARγ LBD [1]; [4]): 407 µM and > 100 µM

Cc1ccc(C2C(C#N)=C(N)Oc3[nH]nc(-c4ccccc4)c32)c(C)c1 (centres unmarked) [10i, 6-Amino-4-(2,4-dimethylphenyl)-3-phenyl-1,4-dihydropyrano[2,3-c]pyrazole-5-carbonitrile]
IC50 (hPPARγ LBD [1]; [4]): 75 µM

Cc1ccccc1C1C(C#N)=C(N)Oc2c1c(C)nn2-c1ccc(Cl)cc1 (centres unmarked) [10af]
IC50 (hPPARγ LBD [1]; [5]): ≤ 1 µM | transactivation selectivity towards all three PPAR subtypes (hPPARγ LBD [2]): selective against PPARγ

Cc1ccc(C2C(C#N)=C(N)Oc3[nH]nc(Cc4ccccc4)c32)c(C)c1 (centres unmarked) [10c, 6-Amino-3-benzyl-4-(2,4-dimethylphenyl)-1,4-dihydropyrano[2,3-c]pyrazole-5-carbonitrile]
IC50 (hPPARγ LBD [1]; [4]): 104 µM and > 100 µM

CCCc1n[nH]c2c1C(c1ccc(Cl)cc1)C(C#N)=C(N)O2 (centres unmarked) [10n, 6-Amino-4-(4-chlorophenyl)-3-propyl-1,4-dihydropyrano[2,3-c]pyrazole-5-carbonitrile]
IC50 (hPPARγ LBD [1]; [4]): 31 µM

Cc1ccc(C)c(C2C(C#N)=C(N)Oc3[nH]nc(-c4ccccc4)c32)c1 (centres unmarked) [10g]
IC50 (hPPARγ LBD [1]; [5]): > 100 µM

Cc1cc(C)c([C@@H]2C(C#N)=C(N)Oc3n[nH]c(C)c32)cc1COc1ccc(Cl)cc1C (stereo in doubt) [compound 4]
IC50 (hPPARγ LBD [1]; [4]): 32 µM | induction of adipocyte differentiation [3]: relatively poor induction of adipocyte differentiation | IC50 (PPARγ): 30 µM

Cc1cc(C)c(C2C(C#N)=C(N)Oc3[nH]nc(C)c32)cc1COc1ccc(Cl)c2cccnc12 (centres unmarked) [10s, 6-Amino-4-(5-(((5-chloroquinolin-8-yl)oxy)methyl)-2,4-dimethylphenyl)-3-methyl-1,4-dihydropyrano[2,3-c]pyrazole-5-carbonitrile]
IC50 (hPPARγ LBD [1]; [4]): 14 µM

Cc1n[nH]c2c1C(c1ccc(Cl)cc1Cl)C(C#N)=C(N)O2 (centres unmarked) [10x, 6-Amino-4-(2,4-dichlorophenyl)-3-methyl-1,4-dihydropyrano[2,3-c]pyrazole-5-carbonitrile]
IC50 (hPPARγ LBD [1]; [4]): 59 µM

Cc1nn(-c2ccccc2)c2c1C(c1ccc(Cl)cc1Cl)C(C#N)=C(N)O2 (centres unmarked) [10f]
induction of transcriptional activation (in words) (hPPARγ LBD [2]): did not induce transcriptional activation

Cc1nn(-c2ccccc2)c2c1C(c1ccc(Cl)cc1Cl)C(C#N)=C(N)O2 (centres unmarked) [10ag, 6-Amino-4-(2,4-dichlorophenyl)-3-methyl-1-phenyl-1,4-dihydropyrano[2,3-c]pyrazole-5-carbonitrile]
IC50 (hPPARγ LBD [1]; [4]): 14 µM

Source: PMC5330453, “Synthesis and biological evaluation of dihydropyrano-[2,3-c]pyrazoles as a new class of PPARγ partial agonists” (PLoS ONE, 2017)
